From PMC13144739, “Global analysis of cancer cell responses to USP9X inhibition” (The EMBO Journal, 2026)

Columns and labels:
USP9X catalytic domain = biological target: T1, USP9X catalytic domain (Homo sapiens, UniProt Q93008); experiment: Ub-Rho cleavage assay; type: biochemical; settings: relative to WEHI-553
T1 construct: His/SUMO (pOPIN-S vector) (N, cleaved yes); made in house; host or cells: E. coli BL21
T1 sequence (Q93008 1551-1970): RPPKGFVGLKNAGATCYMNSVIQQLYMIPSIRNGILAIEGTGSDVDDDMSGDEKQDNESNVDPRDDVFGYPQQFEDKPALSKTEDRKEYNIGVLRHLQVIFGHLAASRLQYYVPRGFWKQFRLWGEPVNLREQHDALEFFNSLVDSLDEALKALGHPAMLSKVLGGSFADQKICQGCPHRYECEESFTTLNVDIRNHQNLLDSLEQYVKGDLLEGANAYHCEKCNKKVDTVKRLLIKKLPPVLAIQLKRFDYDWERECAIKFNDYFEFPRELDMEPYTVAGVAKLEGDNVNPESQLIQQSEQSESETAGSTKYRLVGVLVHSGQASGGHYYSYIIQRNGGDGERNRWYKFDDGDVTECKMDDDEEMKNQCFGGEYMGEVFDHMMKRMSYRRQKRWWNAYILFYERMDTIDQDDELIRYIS
Description: The reaction was stopped through the addition of 10 mM citric acid. The assay was performed in 384-well format with a total reaction volume of 16 µL. Data was collected using the ClarioSTAR plate reader (BMG Labtech) at an emission of 535 nm. […] IC50 values presented in our study are the mean of three independent biological repeats unless indicated otherwise.

MiaPaca2 cells = experiment: Colony formation assay, MiaPaca2; type: cell-based, human; settings: 10 µM, 7–12 days
Description: Cells were seeded at low density (200–4000 cells per well) after initial optimisation in a six-well tissue culture-treated plate (Falcon). Twenty-four hours post seeding, media was replaced, and the inhibitor was added. Cells were left to grow into colonies between 7 and 12 days, depending on the cell line. For analysis, the media was removed, and the cells were fixed with 10% (w/v) formalin for 10 min. Colonies were stained with crystal violet (Sigma-Aldrich, 0.5% [w/v] in 20% [v/v] MeOH) for 10 min and washed thrice with distilled H2O. Plates were imaged using the ChemiDoc imaging system (Bio-Rad) and analysed using the ImageJ ColonyArea plugin as described previously (Guzmán et al, [2014]).

USP24 = experiment: DUBprofiler DUB selectivity panel, USP24; type: biochemical, human; settings: 50 µM compound
Description: UAF1 was added to the USP1, USP12 and USP46 reactions (with WDR20 additionally added to the USP12 and USP46 reactions), respectively. Ubiquitin was added to the USP5 reaction at KD. Proteasome-VS was added to the USP14 reaction at KD. OTUD5 p177S was used. The reaction for AMSH-LP was supplemented with Zinc.

[1] = Caco-2 cell permeability assessment; type: in vitro ADME; settings: human, 10 µM donor
Description: The apparent permeability coefficient was assessed using Caco-2 cell monolayers as described previously (Katneni et al, [2018]). […] Compound flux was assessed over a period of up to 120 min, with samples taken from the acceptor chamber at multiple time points. Samples from the donor chamber were taken at the beginning and at the end of the experiment. The mass balance at the end of the permeability experiment was calculated according to the following equation, where compound mass was calculated as the product of molar concentration and volume of donor or acceptor solution: Mass balance%=Massfinal donor+Massfinal acceptor/Massinitial donorx100
The apparent permeability coefficient (Papp) was determined based on the rate of compound appearance in acceptor buffer at steady state using the following equation: Papp(cm/s)=dQ/dtx1/cinitial donorx A dQ/dt : apparent steady-state transport rate (µmol/s)
A: surface area of Caco-2 monolayer (0.3 cm^2 in the test system used)
cinitial donor : concentration in the donor at the start of experiment (µmol/cm^3).

CEP55 = CEP55 degradation by Western Blot in MDA-MB-231 cells; type: cell-based, human
Description: The next day, cells were lysed in DISC lysis buffer (20 mM TRIS/HCl [pH 7.5], 150 mM NaCl, 2 mM EDTA [pH 8.0], 1% [v/v] Triton X 100, 10% [v/v] glycerol) supplemented with 2% (w/v) SDS and PhosSTOP tablets (Roche). To shred DNA, DISC lysates were run through polypropylene columns (Pierce). […] Next, membranes were washed twice in TBS-T and incubated with primary antibodies at 4 °C o/n. Primary antibodies were diluted in antibody dilution buffer (5% [w/v] BSA [pH 5.2, Sigma-Aldrich] in TBS-T with 0.04% [v/v] sodium azide) as per the manufacturer’s instructions. […] Next, membranes were washed four times for 5 min each in TBS-T. Membranes were developed in ECL (Bio-Rad) and imaged using the ChemiDoc imaging system (Bio-Rad). Images were processed using Image Lab software.
Appendix Fig S4. WEHI-092 phenotypes across cell lines.
(A) IC50 of USP9X inhibitors in MDA-MB-231 cells measured via degradation of the USP9X substrate CEP55 by Western Blot. The compounds were incubated with cells for […]
biological repeats. Error bars, s.e.m. (B) Western Blot analysis of USP9X expression levels across a subset of cell lines used in this study. Representative blot from two independent biological repeats is shown with Actin as a sample loading control. l.p. - low passage; h.p. - high passage. […]
Right, quantification of images plotted as dose-dependent colony area. […]

Cc1[nH]c2ccc(C(=O)N3CCN(S(=O)(=O)c4ccc5c(c4)OCCO5)CC3)cc2c1C [WEHI-092]
improvement of IC50 towards USP9X by SAR (USP9X catalytic domain): > 16 fold | clonogenic potential, MiaPaca2 (MiaPaca2 cells): strong decrease in proliferative capacity | inhibition of USP24, commercial panel (USP24): not inhibited | Papp A→B at 10 µM ([1]; Caco-2, apical-to-basolateral): 42.6 ×10⁻⁶ cm/s | Papp B→A at 10 µM ([1]; Caco-2, basolateral-to-apical): 70.4 ×10⁻⁶ cm/s | IC50 (CEP55; Homo sapiens, MDA-MB-231 cells, 24 h, read-out: apparent IC50 (CEP55 destabilisation, based on Western blotting)): 1300 nM | CEP55 protein level (CEP55; dose-dependent, Western blot): destabilised
